Test results published in patent US20230151003A1, “COMPOUNDS AND METHODS OF USE” (Exelixis, Inc., priority 2020, published 2023).
Counter-ions that a name gives are not always drawn.

Molecular target: T1, Mer (Homo sapiens, UniProt Q12866)
T1 construct: host or cells: 293A cells (Thermo Fisher #R70507)
T1 sequence (Q12866 21-999): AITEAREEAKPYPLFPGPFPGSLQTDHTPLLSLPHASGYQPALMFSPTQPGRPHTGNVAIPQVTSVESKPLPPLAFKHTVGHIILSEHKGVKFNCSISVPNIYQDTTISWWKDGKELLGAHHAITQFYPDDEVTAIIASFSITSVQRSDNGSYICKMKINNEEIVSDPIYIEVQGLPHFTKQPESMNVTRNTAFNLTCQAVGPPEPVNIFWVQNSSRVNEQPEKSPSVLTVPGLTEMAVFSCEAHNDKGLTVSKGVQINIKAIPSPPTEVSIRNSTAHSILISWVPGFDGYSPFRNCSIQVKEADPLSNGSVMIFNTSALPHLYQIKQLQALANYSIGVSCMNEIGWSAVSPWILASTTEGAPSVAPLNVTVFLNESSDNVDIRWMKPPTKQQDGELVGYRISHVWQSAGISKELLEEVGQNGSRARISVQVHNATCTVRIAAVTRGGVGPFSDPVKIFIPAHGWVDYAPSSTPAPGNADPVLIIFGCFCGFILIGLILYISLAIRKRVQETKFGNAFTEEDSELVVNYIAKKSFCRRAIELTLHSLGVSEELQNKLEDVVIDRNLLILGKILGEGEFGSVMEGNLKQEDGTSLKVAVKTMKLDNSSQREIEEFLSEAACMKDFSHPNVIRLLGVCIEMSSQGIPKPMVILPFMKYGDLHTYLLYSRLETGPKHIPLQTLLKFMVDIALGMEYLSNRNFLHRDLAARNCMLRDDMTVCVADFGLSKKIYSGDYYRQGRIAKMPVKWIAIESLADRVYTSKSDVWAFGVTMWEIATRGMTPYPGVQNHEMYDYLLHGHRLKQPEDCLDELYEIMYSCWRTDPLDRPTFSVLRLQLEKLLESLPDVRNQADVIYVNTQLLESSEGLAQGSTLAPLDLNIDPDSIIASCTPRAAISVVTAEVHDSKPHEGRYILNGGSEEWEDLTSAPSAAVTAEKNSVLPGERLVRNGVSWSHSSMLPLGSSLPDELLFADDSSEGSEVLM
Experiment: Mer autophosphorylation ELISA in transient transfected 293A cells
Format: cell-based
Conditions: Table 3 Cellular Activities; MERTK-transfected 293A cells, phospho-Mer ELISA
Procedure, shortened: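 Phospho-Mer quantified by ELISA in lysates of transiently MERTK-transfected 293A cells after 1 h exposure to an 8-point compound series, serum-free, 0.3% DMSO. Activity normalized between DMSO-treated (100%) and reference inhibitor-treated (0%) lysates; IC50 via 4-parameter nonlinear regression.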

| SMILES | IC50 |
| --- | --- |
| COc1ccc2nccc(Oc3ccc(NC(=O)c4cnc(C)c(-c5cccs5)c4O)cc3F)c2n1 [Compound 128, N-[3-Fluoro-4-[(6-methoxy-1,5-naphthyridin-4-yl)oxy]phenyl]-4-hydroxy-6-methyl-5-thiophen-2-ylpyridine-3-carboxamide] | ≤ 100 nM |
| COc1cc2nccc(Oc3ccc(NC(=O)c4cnc(C)c(-c5ccc(C6CC6)o5)c4O)cc3F)c2nc1OC [Compound 155A, 5-(5-Cyclopropylfuran-2-yl)-N-[4-[(6,7-dimethoxy-1,5-naphthyridin-4-yl)oxy]-3-fluorophenyl]-4-hydroxy-6-methylpyridine-3-carboxamide hydrochloride] | ≤ 100 nM |
| COc1cnc2c(Oc3ccc(NC(=O)c4cnc(C)c(-c5cc(C)cs5)c4O)cc3F)ccnc2c1 [Compound 102, N-[3-Fluoro-4-[(7-methoxy-1,5-naphthyridin-4-yl)oxy]phenyl]-4-hydroxy-6-methyl-5-(4-methyl-2-thienyl) pyridine-3-carboxamide] | ≤ 100 nM |
| COc1ccc2nccc(Oc3ccc(NC(=O)c4cnc(C)c(-c5ccco5)c4O)cc3F)c2n1 [Compound 118, N-[3-Fluoro-4-[(6-methoxy-1,5-naphthyridin-4-yl)oxy]phenyl]-5-(furan-2-yl)-4-hydroxy-6-methylpyridine-3-carboxamide] | ≤ 100 nM |
| COc1cnc2c(Oc3ccc(NC(=O)c4cn(CCF)c(C)c(-c5ccoc5)c4=O)cc3F)ccnc2c1 [Compound 334, 1-(2-Fluoroethyl)-N-[3-fluoro-4-[(7-methoxy-1,5-naphthyridin-4-yl)oxy]phenyl]-5-(furan-3-yl)-6-methyl-4-oxopyridine-3-carboxamide] | ≤ 100 nM |
| COc1cnc2c(Oc3ccc(NC(=O)c4cn(CCF)c(C)c(-c5ccsc5)c4=O)cc3F)ccnc2c1 [Compound 330, 1-(2-Fluoroethyl)-N-[3-fluoro-4-[(7-methoxy-1,5-naphthyridin-4-yl)oxy]phenyl]-6-methyl-4-oxo-5-thiophen-3-ylpyridine-3-carboxamide] | ≤ 100 nM |
| COc1cc2nccc(Oc3ccc(NC(=O)c4c(C)n(C)c(C)c(-c5ccco5)c4=O)cc3)c2nc1OC [Compound 164, N-[4-[(6,7-Dimethoxy-1,5-naphthyridin-4-yl)oxy]phenyl]-5-(furan-2-yl)-1,2,6-trimethyl-4-oxopyridine-3-carboxamide] | ≤ 100 nM |
| COc1cc2nccc(Oc3ccc(NC(=O)c4cnc(C)c(-c5ccc(C)o5)c4O)cc3F)c2nc1OC [Compound 92, N-[4-[(6,7-Dimethoxy-1,5-naphthyridin-4-yl)oxy]-3-fluoro-phenyl]-4-hydroxy-6-methyl-5-(5-methyl-2-furyl)pyridine-3-carboxamide] | ≤ 100 nM |
| COc1cnc2c(Oc3ccc(NC(=O)c4c(C)n(C)c(C)c(-c5cccs5)c4=O)cc3)ccnc2c1 [Compound 165, N-[4-[(7-Methoxy-1,5-naphthyridin-4-yl)oxy]phenyl]-1,2,6-trimethyl-4-oxo-5-thiophen-2-ylpyridine-3-carboxamide] | ≤ 100 nM |
| COc1cc2nccc(Oc3ccc(NC(=O)c4cnc(C)c(-c5cc(C)nn5C)c4O)cc3F)c2nc1OC [Compound 136, N-[4-[(6,7-Dimethoxy-1,5-naphthyridin-4-yl)oxy]-3-fluorophenyl]-5-(2,5-dimethylpyrazol-3-yl)-4-hydroxy-6-methylpyridine-3-carboxamide] | ≤ 100 nM |
| C=C(C)c1ccc(-c2c(C)ncc(C(=O)Nc3ccc(Oc4ccnc5cc(OC)c(OC)nc45)c(F)c3)c2O)o1 [Compound 152, N-[4-[(6,7-Dimethoxy-1,5-naphthyridin-4-yl)oxy]-3-fluorophenyl]-4-hydroxy-6-methyl-5-(5-prop-1-en-2-ylfuran-2-yl)pyridine-3-carboxamide] | ≤ 100 nM |
| COc1cnc2c(Oc3ccc(NC(=O)c4cn(CCF)c(C)c(-c5cccs5)c4=O)cc3F)ccnc2c1 [Compound 331, 1-(2-Fluoroethyl)-N-[3-fluoro-4-[(7-methoxy-1,5-naphthyridin-4-yl)oxy]phenyl]-6-methyl-4-oxo-5-thiophen-2-ylpyridine-3-carboxamide] | ≤ 100 nM |

Further lines, results first:

| IC50 | SMILES |
| --- | --- |
| ≤ 100 nM | COc1cc2nccc(Oc3ccc(NC(=O)c4c(C)ncc(-c5sccc5C)c4O)cc3F)c2nc1OC [Compound 126, N-[4-[(6,7-Dimethoxy-1,5-naphthyridin-4-yl)oxy]-3-fluorophenyl]-4-hydroxy-2-methyl-5-(3-methylthiophen-2-yl)pyridine-3-carboxamide] |
| ≤ 100 nM | COc1cc2nccc(Oc3ccc(NC(=O)c4c(C)ncc(-c5cc(C)cs5)c4O)cc3F)c2nc1OC [Compound 125, N-[4-[(6,7-Dimethoxy-1,5-naphthyridin-4-yl)oxy]-3-fluorophenyl]-4-hydroxy-2-methyl-5-(4-methylthiophen-2-yl)pyridine-3-carboxamide] |
| ≤ 100 nM | COc1cc2nccc(Oc3ccc(NC(=O)c4c(C)nc(C)c(-c5ccc(C)s5)c4O)cc3F)c2nc1OC [Compound 111, N-[4-[(6,7-Dimethoxy-1,5-naphthyridin-4-yl)oxy]-3-fluoro-phenyl]-4-hydroxy-2,6-dimethyl-5-(5-methyl-2-thienyl)pyridine-3-carboxamide] |
| ≤ 100 nM | COc1cc2nccc(Oc3ccc(NC(=O)c4c(C)ncc(-c5cccs5)c4O)cc3F)c2nc1OC [Compound 123, N-[4-[(6,7-Dimethoxy-1,5-naphthyridin-4-yl)oxy]-3-fluorophenyl]-4-hydroxy-2-methyl-5-thiophen-2-ylpyridine-3-carboxamide] |
| ≤ 100 nM | COc1cc2nccc(Oc3ccc(NC(=O)c4cnc(C)c(-c5cc(C)cs5)c4O)cc3F)c2nc1OC [Compound 91, N-[4-[(6,7-Dimethoxy-1,5-naphthyridin-4-yl)oxy]-3-fluoro-phenyl]-4-hydroxy-6-methyl-5-(4-methyl-2-thienyl) pyridine-3-carboxamide] |
| ≤ 100 nM | COc1cc2nccc(Oc3ccc(NC(=O)c4c(C)nc(C)c(-c5cccs5)c4O)cc3F)c2nc1OC [Compound 107] |
| ≤ 100 nM | COc1cc2nccc(Oc3ccc(NC(=O)c4cnc(C)c(-c5nccs5)c4O)cc3F)c2nc1OC [Compound 143, N-[4-[(6,7-Dimethoxy-1,5-naphthyridin-4-yl)oxy]-3-fluorophenyl]-4-hydroxy-6-methyl-5-(1,3-thiazol-2-yl)pyridine-3-carboxamide] |
| ≤ 100 nM | COCc1nc(C)c(-c2cccs2)c(O)c1C(=O)Nc1ccc(Oc2ccnc3cc(OC)c(OC)nc23)c(F)c1 [Compound 115, N-[4-[(6,7-Dimethoxy-1,5-naphthyridin-4-yl)oxy]-3-fluorophenyl]-4-hydroxy-2-(methoxymethyl)-6-methyl-5-thiophen-2-ylpyridine-3-carboxamide] |
| ≤ 100 nM | COc1cc2nccc(Oc3ccc(NC(=O)c4c(C)nc(C)c(-c5cc(C(F)(F)F)nn5C)c4O)cc3F)c2nc1OC [Compound 138] |
